According to patent US10357493B2, “Metalloenzyme inhibitor compounds” (Selenity Therapeutics (Bermuda), Ltd., priority 2017, dated 2019):

Columns and labels:
HDAC1 = HDAC1 (Homo sapiens (Human), UniProt Q13547); assay: HDAC1 enzymatic assay; type: biochemical; conditions: read-out: Human HDAC1 IC50
Method in brief: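 Compound inhibition of human HDAC1 (0.5 ng enzyme, 10 uM substrate) was assessed by fluorescence after developer treatment, excitation 360 nm and emission 460 nm. Percent activity was normalized to no-compound (100%) and no-enzyme (0%) controls, plotted against concentration, and fitted to a sigmoidal dose-response curve in Graphpad Prism to obtain IC50 at half-maximal activity.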

HDAC6 = HDAC6 (Homo sapiens (Human), UniProt Q9UBN7); assay: HDAC6 enzymatic assay; type: biochemical; conditions: read-out: Human HDAC6 IC50
Chain of HDAC6 (Q9UBN7 whole entry): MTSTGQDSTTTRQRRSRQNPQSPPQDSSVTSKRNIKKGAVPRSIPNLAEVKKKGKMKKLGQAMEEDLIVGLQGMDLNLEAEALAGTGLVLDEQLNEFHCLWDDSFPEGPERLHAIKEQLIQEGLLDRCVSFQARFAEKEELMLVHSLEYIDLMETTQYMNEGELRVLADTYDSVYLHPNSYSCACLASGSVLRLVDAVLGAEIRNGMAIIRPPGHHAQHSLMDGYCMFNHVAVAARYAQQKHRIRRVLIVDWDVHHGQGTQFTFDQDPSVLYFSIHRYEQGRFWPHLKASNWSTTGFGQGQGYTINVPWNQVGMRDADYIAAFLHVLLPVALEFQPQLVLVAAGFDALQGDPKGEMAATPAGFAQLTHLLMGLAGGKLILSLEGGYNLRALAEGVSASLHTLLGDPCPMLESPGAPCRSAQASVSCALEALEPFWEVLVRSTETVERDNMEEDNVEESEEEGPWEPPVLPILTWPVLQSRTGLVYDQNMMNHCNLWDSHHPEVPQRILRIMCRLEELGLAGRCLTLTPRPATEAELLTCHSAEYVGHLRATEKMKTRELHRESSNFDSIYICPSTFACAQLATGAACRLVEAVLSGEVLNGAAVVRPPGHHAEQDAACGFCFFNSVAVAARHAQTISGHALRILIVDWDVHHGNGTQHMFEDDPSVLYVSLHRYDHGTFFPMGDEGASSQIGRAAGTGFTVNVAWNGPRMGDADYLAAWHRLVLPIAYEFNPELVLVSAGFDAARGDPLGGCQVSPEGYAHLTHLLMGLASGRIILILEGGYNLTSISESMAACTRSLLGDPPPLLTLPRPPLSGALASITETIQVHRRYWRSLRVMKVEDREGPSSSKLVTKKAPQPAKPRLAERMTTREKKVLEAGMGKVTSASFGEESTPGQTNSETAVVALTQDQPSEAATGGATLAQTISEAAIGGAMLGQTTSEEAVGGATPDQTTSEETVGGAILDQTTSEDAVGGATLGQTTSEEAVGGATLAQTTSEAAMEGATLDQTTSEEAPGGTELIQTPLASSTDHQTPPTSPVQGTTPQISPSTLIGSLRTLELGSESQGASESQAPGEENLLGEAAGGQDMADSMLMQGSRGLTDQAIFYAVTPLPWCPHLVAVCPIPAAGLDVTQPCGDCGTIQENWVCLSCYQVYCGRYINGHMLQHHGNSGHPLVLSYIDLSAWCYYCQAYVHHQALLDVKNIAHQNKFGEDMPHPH
Method in brief: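 Following a 17 hour room-temperature incubation of 2 ng HDAC6 with 10 uM substrate and compound, 50 μl developer was added for another 20 minutes, and fluorescence (excitation 360 nm, emission 460 nm) was recorded. Activity was normalized to no-compound (100%) and no-enzyme (0%) wells, and IC50 came from sigmoidal dose-response fitting in Graphpad Prism.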

Chain of HDAC1 (Q13547 whole entry): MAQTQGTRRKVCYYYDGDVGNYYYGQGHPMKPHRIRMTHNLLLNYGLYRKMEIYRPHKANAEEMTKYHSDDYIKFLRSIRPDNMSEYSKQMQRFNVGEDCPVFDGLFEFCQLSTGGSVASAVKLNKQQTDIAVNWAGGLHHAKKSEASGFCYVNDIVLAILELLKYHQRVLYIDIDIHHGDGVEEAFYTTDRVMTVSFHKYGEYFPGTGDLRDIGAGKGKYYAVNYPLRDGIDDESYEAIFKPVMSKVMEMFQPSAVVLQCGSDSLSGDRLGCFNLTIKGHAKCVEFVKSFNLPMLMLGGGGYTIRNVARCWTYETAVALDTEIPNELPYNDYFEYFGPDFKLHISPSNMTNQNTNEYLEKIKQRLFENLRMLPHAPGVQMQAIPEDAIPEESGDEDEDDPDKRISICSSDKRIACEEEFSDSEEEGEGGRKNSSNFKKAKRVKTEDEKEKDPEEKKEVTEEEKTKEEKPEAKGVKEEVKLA

Structure (SMILES)	IC50 (HDAC1)	IC50 (HDAC6)
FC(F)c1nnc(-c2cnc(NC(c3ccccc3)c3ccccc3)nc2)o1 [Example 7, N-benzhydryl-5-(5-(difluoromethyl)-1,3,4-oxadiazol-2-yl)pyrimidin-2-amine]	> 30000 nM	1700 nM
Fc1cc(OC(F)F)ccc1C1(Nc2ncc(-c3nnc(C(F)F)o3)cn2)CC1 [Example 33, N-(1-(4-(difluoromethoxy)-2-fluorophenyl)cyclopropyl)-5-(5-(difluoromethyl)-1,3,4-oxadiazol-2-yl)pyrimidin-2-amine]	> 30000 nM	29 nM
CS(=O)(=O)CC(Nc1ncc(-c2nnc(C(F)F)o2)cn1)c1ccc(F)cc1 (single isomer, unassigned) [161(−), 5-(5-(difluoromethyl)-1,3,4-oxadiazol-2-yl)-N-(1-(4-fluorophenyl)-2-(methylsulfonyl)ethyl)pyrimidin-2-amine]	> 30000 nM	870 nM
O=C(C1CC1)N(CC(Nc1ncc(-c2nnc(C(F)F)o2)cn1)c1ccc(F)cc1)CC(F)(F)F (single isomer, unassigned) [170(−), N-(2-((5-(5-(difluoromethyl)-1,3,4-oxadiazol-2-yl)pyrimidin-2-yl)amino)-2-(4-fluorophenyl)ethyl)-N-(2,2,2-trifluoroethyl)cyclopropanecarboxamide]	> 30000 nM	1000 nM
CN(CC(Nc1ncc(-c2nnc(C(F)F)o2)cn1)c1ccc(OC(F)(F)F)cc1)S(=O)(=O)C1CC1 (stereo not drawn) [159(+), N-(2-((5-(5-(difluoromethyl)-1,3,4-oxadiazol-2-yl)pyrimidin-2-yl)amino)-2-(4-(trifluoromethoxy)phenyl)ethyl)-N-methylcyclopropanesulfonamide]	> 30000 nM	90 nM

Continued, values first:

IC50 (HDAC1)	IC50 (HDAC6)	Structure (SMILES)
> 30000 nM	64 nM	FC(F)c1nnc(-c2cnc(NC3(c4ccc(C(F)(F)F)cc4)CC3)nc2)o1 [Example 45, 5-(5-(difluoromethyl)-1,3,4-oxadiazol-2-yl)-N-(1-(4-(trifluoromethyl)phenyl)cyclopropyl) pyrimidin-2-amine]
> 30000 nM	21 nM	Fc1ccc(C2(Nc3ncc(-c4nnc(C(F)F)o4)cn3)CC2)cc1F [Example 59, 5-(5-(difluoromethyl)-1,3,4-oxadiazol-2-yl)-N-(1-(3,4-difluorophenyl)cyclopropyl) pyrimidin-2-amine]
> 30000 nM	20 nM	FC(F)c1nnc(-c2cnc(NC3(c4ccccc4OC(F)(F)F)CC3)nc2)o1 [Example 55, 5-(5-(difluoromethyl)-1,3,4-oxadiazol-2-yl)-N-(1-(2-(trifluoromethoxy)phenyl)cyclopropyl) pyrimidin-2-amine]
> 30000 nM	330 nM	CS(=O)(=O)Nc1ccc(CC(Nc2ncc(-c3nnc(C(F)F)o3)cn2)c2ccc(F)cc2)cc1 (stereo not drawn) [Example 133, N-(4-(2-((5-(5-(difluoromethyl)-1,3,4-oxadiazol-2-yl)pyrimidin-2-yl)amino)-2-(4-fluorophenyl)ethyl)phenyl)methanesulfonamide]
> 30000 nM	76 nM	O=C(NCC(Nc1ncc(-c2nnc(C(F)F)o2)cn1)c1ccc(F)cc1)c1ccccc1 (stereo not drawn) [Example 79, N-(2-((5-(5-(difluoromethyl)-1,3,4-oxadiazol-2-yl)pyrimidin-2-yl)amino)-2-(4-fluorophenyl)ethyl)benzamide]
> 30000 nM	21 nM	Fc1cccc(C2(Nc3ncc(-c4nnc(C(F)F)o4)cn3)CC2)c1Cl [Example 91, N-(1-(2-chloro-3-fluorophenyl)cyclopropyl)-5-(5-(difluoromethyl)-1,3,4-oxadiazol-2-yl)pyrimidin-2-amine]
> 30000 nM	40 nM	FC(F)c1nnc(-c2cnc(NC3(c4ccccc4C(F)(F)F)CC3)nc2)o1 [Example 58, 5-(5-(difluoromethyl)-1,3,4-oxadiazol-2-yl)-N-(1-(2-(trifluoromethyl)phenyl)cyclopropyl) pyrimidin-2-amine]
